# Reference: paper PMC12590467, “Accessory Subunit Regulates Thiyl Radical Formation in Benzylsuccinate Synthase” (Biochemistry, 2025)
# Target: T1, BSSαβγ (benzylsuccinate synthase) (Thauera aromatica, UniProt O68395)
# T1 construct: gene tutD; BSSαγ mixed 1:2 with BSSβ; (αβγ)2; α 865, β 81, γ 60 residues; resolved α 9-865, β 13-81, γ 5-59; catalytic Cys493; with Benzylsuccinate synthase beta subunit; Benzylsuccinate synthase gamma subunit
# Assay: X-ray crystal structure, […] Å
# Assay type: binding
# Settings: active site; toluene not added, modelled from glovebox atmosphere; also turned over with fumarate; pH 8.5
# T1 sequence (O68395 1-864): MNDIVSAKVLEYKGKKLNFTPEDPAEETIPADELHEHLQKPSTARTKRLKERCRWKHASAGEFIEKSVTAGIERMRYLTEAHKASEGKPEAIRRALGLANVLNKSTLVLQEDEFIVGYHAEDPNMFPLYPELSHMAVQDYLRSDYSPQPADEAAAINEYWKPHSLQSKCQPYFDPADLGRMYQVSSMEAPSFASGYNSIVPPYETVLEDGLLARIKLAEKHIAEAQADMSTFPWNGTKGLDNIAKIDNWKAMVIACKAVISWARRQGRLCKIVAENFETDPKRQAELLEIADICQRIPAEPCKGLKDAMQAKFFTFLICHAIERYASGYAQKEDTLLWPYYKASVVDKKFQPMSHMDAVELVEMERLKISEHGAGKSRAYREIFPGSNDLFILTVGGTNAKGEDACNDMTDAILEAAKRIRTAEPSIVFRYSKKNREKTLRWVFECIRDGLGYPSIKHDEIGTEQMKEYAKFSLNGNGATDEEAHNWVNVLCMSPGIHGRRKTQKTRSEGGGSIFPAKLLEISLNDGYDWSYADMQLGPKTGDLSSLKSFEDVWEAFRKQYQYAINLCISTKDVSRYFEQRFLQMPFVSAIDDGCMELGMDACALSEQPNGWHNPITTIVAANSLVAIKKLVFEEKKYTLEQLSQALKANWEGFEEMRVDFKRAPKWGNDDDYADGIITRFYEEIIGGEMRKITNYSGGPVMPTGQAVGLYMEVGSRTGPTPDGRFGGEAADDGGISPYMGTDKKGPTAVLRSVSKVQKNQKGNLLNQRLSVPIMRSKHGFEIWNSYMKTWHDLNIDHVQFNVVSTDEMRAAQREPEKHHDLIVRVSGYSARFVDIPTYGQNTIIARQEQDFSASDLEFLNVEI
# T1 sequence (O68396 1-81 partner): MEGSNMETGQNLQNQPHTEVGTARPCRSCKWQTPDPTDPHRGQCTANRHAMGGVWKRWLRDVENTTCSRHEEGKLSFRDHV
# T1 sequence (O68394 1-60 partner): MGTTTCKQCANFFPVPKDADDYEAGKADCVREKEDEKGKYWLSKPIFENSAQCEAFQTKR
smiles,measurement,value
Cc1ccccc1 [toluene],"X-ray crystal structure, 2.9 Å","In the active site, both toluene and fumarate were modeled and align well"
